Measured values: patent US20230257429A1, “PEPTIDE ADJUVANT FOR ITS THERAPEUTIC APPLICATIONS IN VIRAL AND TUMOUR VACCINE DEVELOPMENT AND CANCER IMMUNOTHERAPY AND AUTOIMMUNE DISEASE DIAGNOSIS AND TREATMENTS” (National University of Singapore, priority 2020, published 2023)
“Also recorded” adds a separate entry of the source. Ends that are not written are not given here.

Columns and labels:
[1] = test system: PBMC; assay: PBMC activation, TNFα and IL-1β ELISA; assay type: cell-based, human; set-up: PBMC activation (TNFα) by FBRL peptides: dose or concentration left out as unconfirmed; details: peptides added to 50 or 160, 24 hr
[2] = test system: PBMC; assay: Peptide binding to and penetration of PBMC, flow cytometry; assay type: cell-based, human; details: 1 hr at 4° C., fixed/permeabilized, streptavidin-AF488
Description: PBMC re-suspended in 100 μl macrophage serum free media (3×10^6/ml) were incubated with different peptides (200 μg/ml). PBMC (100 μl) were incubated with the peptides for 1 hr at 37° C. or 4° C. Cells were washed twice in 2% FBS/PBS and incubated with streptavidin-AF488 and Zombie (NIR) Fixable viability stain-APC-Cy7 for 30 min at 4° C. Cells were then fixed with 1% PFA for 30 min at room temperature and analysed using the Fortessa analyser (BD). In some experiments, PBMC were, after incubation with peptides, incubated with Zombie (NIR) Fixable viability stain (APC-Cy7) for 30 min at 4° C. Cells were then fixed and permeabilized with BD CYTOFIX/CYTOPERM™ Kit for 20 min at 4° C., and then incubated with streptavidin-AF488 for 30 min at 4° C. In some experiments, PBMC were, after incubation with the peptides, stained with fluorescent mouse antibodies specific for monocytes (CD14/BV711), T cells (CD3/PerCP-Cy5-5) and B cells (CD19/Pacific blue). Cells were then stained with Zombie (NIR) Fixable viability stain-APC-Cy7 and streptavin-AF488, with or without membrane permeabilization. In these experiments, monocytes, T cells and B cells were separately gated to detect surface peptide binding and intracellular peptide penetration.

[3] = test system: monocytes; assay: Monocyte activation, TNFα and IL-1β ELISA; assay type: cell-based, human; details: for TNFα induction from monocytes (7 NCL peptides): peptides 50 or 200 μg/ml
Description: Buffy coat fractions were obtained from healthy blood donors at the Singapore Health Sciences Authority, with Institutional ethics approval, and PBMC were isolated using Ficoll-Paque (GE Healthcare). To isolate monocytes, PBMC were re-suspended to 1×10^7 cells/ml in the RPMI medium contained 5% (v/v) BCS and incubated for 1 hr in T75 flasks (20 ml/flask). Monocytes that adhered were harvested. To culture macrophages and DC [Cao, W., et al., Blood 107: 2777-2785, (2006), incorporated herein by reference], monocytes were resuspended to 1×10^6 cells/ml and cultured in 6-well plates (2 ml/well). Macrophages were cultured by adding M-CSF to 20 ng/ml and DC were cultured with 20 ng/ml GM-CSF and 40 ng/ml IL-4. M-CSF, GM-CSF and IL-4 were obtained from R&D Systems (Mineapolis, Minn.). Cells were cultured for 6 days with half of the media being replenished every two days.
[…] Where TLR ligands were used to stimulate these cells, they were added to the media: LPS (500 ng/ml for DC and macrophages and 10 ng/ml for PMBC and monocytes, InvivoGen), flagellin (1 μg/ml, InvivoGen), lipoteichic acid (LTA, 10 μg/ml). Cell activation was determined by measuring TNFα and IL-1β in the culture media using ELISA kits (Invitrogen).

[4] = biological target: T1, TLR2 (Homo sapiens, UniProt O60603); assay: TLR2 binding assay (ELISA plate); set-up: purchased R&D Systems; details: for peptide binding to coated TLR2: biotin peptides at increasing concentrations
[5] = biological target: T2, MyD88 (Homo sapiens, UniProt Q99836); assay: MyD88 inhibitor pre-treatment before stimulation, cytokine ELISA; assay type: cell-based; details: monocytes, st-2825 30 μM, 1 hr pre-incubation
T2 construct: endogenous in cells; host or cells: PBMC / monocytes from blood donors
T2 sequence (Q99836 whole entry): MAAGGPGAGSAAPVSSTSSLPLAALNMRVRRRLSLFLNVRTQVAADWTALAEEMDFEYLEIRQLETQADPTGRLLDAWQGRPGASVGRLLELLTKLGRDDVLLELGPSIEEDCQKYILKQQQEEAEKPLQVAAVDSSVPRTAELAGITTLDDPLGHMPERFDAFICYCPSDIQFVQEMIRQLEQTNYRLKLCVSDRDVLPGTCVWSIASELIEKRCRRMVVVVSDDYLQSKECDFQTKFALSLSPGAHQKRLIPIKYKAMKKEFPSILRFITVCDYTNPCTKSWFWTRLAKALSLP
Description: In some experiments, cells were pre-treated with the MyD88 inhibitor st-2825 (MedChemExpress) or the Caspase-1 inhibitor Ac-YVAD (InvivoGen) for 1 hr before stimulation with TLR ligands or the purified nuclear proteins. In some other experiments, cells were pre-incubated for 1 hr with anti-TLR2, TLR4 and TLR5 antibodies (InvivoGen) before stimulation. The optimal st-2825 and Ac-YVAD concentrations were determined based on both their effects on cell viability and LPS-induced cytokine production. Cell viability was determined using the CELLTITER 96® AQueous One Solution Cell Proliferation (MTS) Assay (Promega).
We then examined whether NCL still induces cytokines when MyD88 is inhibited [Kawai, T. and Akira, S., Semin Immunol 19: 24-32 (2007)]. A MyD88 inhibitor st-2825 was used in this experiment (FIG. 3A). Its optimal concentration was, after titration of its cytotoxicity and its inhibition of LPS-induced cytokine production, determined to be 30 μM (FIG. 5). […] The inhibition of TNFα production by Ac-YVAD could be explained by its blocking autocrine monocytes activation through the IL-1β these cells produce (FIG. 4).

[6] = biological target: T1, TLR2; assay: TLR and NF-κB-luciferase assay in 293T cells, TLR2/TLR1/TLR6/TLR10; assay type: cell-based; set-up: expressed in transfected cells; host or cells: human embryonic kidney 293T cells; details: peptides 200 μg/ml, 24 hr
Description: TLR-mediated NF-κB activation was determined using a Dual Luciferase Reporter Assay (Promega), in which two luciferase reporter plasmids were used. […] Transfection was performed using the TurboFect Transfection Reagent (Thermo Fisher Scientific). After 24 hr, cells were harvested and cultured for 24 hr in 96-well plates coated with the purified proteins or, as controls, cultured in blank plates but stimulated with TLR ligands. Cells were lysed to measure both firefly and Renilla luciferase activities and, in each sample, the firefly activity was normalized to the Renilla luciferase activity and expressed as relative NF-κB activation.
TLRs and, where it required, co-receptors were co-transfected in a total of 4 combinations, i.e. TLR2/1/6/10, TLR4/CD14/MD2, TLR5, or TLR3/7/8/9. Two luciferase expression vectors were used: one expresses the firefly luciferase under 5 repeats of the NF-κB gene promoter and the other expresses the Renilla luciferase under the constitutively active CMV promoter (FIG. 3A).

[7] = biological target: T3, Recombinant human TLR2-10×His (R&D Systems) (human, UniProt O60603 21-590); assay: ELISA: biotin peptide on coated TLR2
T3 construct: Bought protein; also called His-tagged TLR2
T3 sequence (O60603 other isoform, or with tags, fused parts or gaps limits assumed): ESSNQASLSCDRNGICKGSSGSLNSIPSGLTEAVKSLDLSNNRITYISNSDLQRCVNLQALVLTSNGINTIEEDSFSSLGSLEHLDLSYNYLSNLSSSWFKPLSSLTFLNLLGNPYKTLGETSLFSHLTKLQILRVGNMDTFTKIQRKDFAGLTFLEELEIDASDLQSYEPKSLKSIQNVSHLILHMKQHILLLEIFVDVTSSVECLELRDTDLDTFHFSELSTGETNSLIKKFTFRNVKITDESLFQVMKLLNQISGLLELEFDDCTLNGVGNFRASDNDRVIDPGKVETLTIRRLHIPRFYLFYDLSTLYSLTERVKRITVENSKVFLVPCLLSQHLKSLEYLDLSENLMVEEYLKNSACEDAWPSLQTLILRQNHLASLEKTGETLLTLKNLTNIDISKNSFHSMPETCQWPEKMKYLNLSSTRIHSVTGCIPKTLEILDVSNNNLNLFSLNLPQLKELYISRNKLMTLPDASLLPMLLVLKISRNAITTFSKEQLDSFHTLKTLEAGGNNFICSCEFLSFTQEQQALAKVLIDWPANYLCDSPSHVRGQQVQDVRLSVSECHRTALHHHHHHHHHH

[8] = test system: autologous CD4 and CD8 T cells; assay: Antigen-loaded DC co-culture with autologous lymphocytes, proliferation; assay type: cell-based, human; details: DC:T 1:5, 2 weeks co-culture, CellTrace Violet
Description: PBMC were isolated from healthy blood donors from which monocytes were isolated to culture DC and the remaining cells (mostly lymphocytes) were stored frozen as a source of autologous lymphocytes. DC were then incubated for 24 hr with P2+G, IPA1E2 or the IPA1E2-P2+G fusion polypeptide (SEQ ID NO: 58) in round bottom 96-well plates (5×10^4 cells/well) without adding additional adjuvants. The frozen lymphocytes were revived and labelled with CellTrace Violet (2.5 μM) for 10 min at 37° C. and then added to the DC wells at 2.5×10^5 cells/well (DC:T ratio=1:5). After 2 weeks of co-culture, the proliferation of CD4+ and CD8+ T cell and CD19+ B cell was analyzed by flow cytometry.

RGGGFGGRGGFGDRGGRGGRGG (FBRL-P1)
PBMC activation (TNFα) by FBRL peptides [1]: activated PBMC

RGGFGGRGGGRGGRGGFGGRG (NCL-P6)
intracellular pool / cell penetration (CPP activity) in PBMC [2]: all lacked cell penetration; also recorded: diminished CPP activities
TNFα induction from monocytes (7 NCL peptides) ([3]; 24 hr): induced TNFα; also recorded: minor adjuvant activity
concentration at which saturated TLR2 binding was reached ([4]; TLR2 coated 2 μg/ml): 80 µg/mL
peptide binding to coated TLR2 ([4]; TLR2 coated 2 μg/ml): largely replicated NCL-P2 in TLR2 binding

GGFGGRGGGRGGFGGRGGGRGGRGGFGGRGRG (NCL-P1)
intracellular pool / cell penetration (CPP activity) in PBMC [2]: accumulate intracellular pools
cytokine induction, soluble versus coated (immobilized) form ([3]; monocytes, 24 hr): induced more cytokines than immobilized peptides
TNFα induction from monocytes (7 NCL peptides) ([3]; 24 hr): induced TNFα
TNFα induction from monocytes at lower concentrations ([3]; soluble peptide 10 and 20 μg/ml): induced little TNFα
TNFα induction from monocytes at higher concentrations ([3]; soluble peptide 80 and 160 μg/ml): strongly induced TNFα production
peptide binding to coated TLR2 ([4]; TLR2 coated 2 μg/ml): dose-dependent and saturable binding to TLR2

NC(=O)[C@H]1CCS[C@@H]2C[C@]3(CCCN3C(=O)Cc3ccc(NC(=O)COc4ccc(Cl)cc4Cl)cc3)C(=O)N12 [st-2825]
inhibition of HMGB1 and LPS induction of TNFα and IL-1β [5]: also inhibited
inhibition of NCL induction of TNFα and IL-1β [5]: partially but significantly inhibited

NCL-P3: control peptide covering the C-terminal 12 residues of NCL outside the GAR/RGG domain (DHKPQGKKTKFE; NCL-P3)
intracellular pool / cell penetration (CPP activity) in PBMC [2]: no intracellular pool; also recorded: not a 12-AA non-GAR/RGG peptide
TNFα induction from monocytes, all concentrations ([3]; soluble peptide 10 to 160 μg/ml, 24 hr): no TNFα induction
peptide binding to coated TLR2 ([4]; TLR2 coated 2 μg/ml): no detectable binding; also recorded: lacked TLR2 binding
TLR2-mediated NF-κB activation by peptides [6]: not observed

RGGFGGGRGRGGGFRGRGRGG (FBRL-P2)
PBMC activation (TNFα) by FBRL peptides [1]: activated PBMC

NCL(698)-HA: NCL-HA mutant in which 12 amino acids were deleted from the C-terminal end
TNFα and IL-1β production from monocytes ([3]; protein coated on plates, 24 hr, ELISA): continued to stimulate monocytes
TLR2 binding to coated NCL-HA mutants (summary experiment) ([4]; protein coated 10 μg/ml, TLR2 2 μg/ml): bound

B1: NCL-P4 peptide, N-terminal biotin (peptide)
peptide: RGGFGGRGGG
modifications: not fully specified (N-terminus)
notes: Synthetic peptide; also called NCL-4
binding result [7]: no binding (tested: 200 µg/ml)

B2: NCL-P1 peptide (32 residues), N-terminal biotin (peptide)
peptide: GGFGGRGGGRGGFGGRGGGRGGRGGFGGRGRG
modifications: not fully specified (N-terminus)
notes: Synthetic peptide
binding result [7]: binds

B3: IPA1E2-P2+G: P2+G synthesized in fusion with the 30-AA peptide antigen IPA1E2 (peptide)
chain: GQGQLVKRPKIMRFISHLWLALESANSEKRGGFGGRGGGRGGRGGFGGRGGRGGFGGRGGFRGGRGG
modifications: IPA1E2-P2+G
notes: P2+G synthesized in fusion with the 30-AA peptide antigen IPA1E2
T cell proliferation / activation induced by peptide-loaded DC [8]: significantly increased T cell proliferation

B4: NCL-P5 peptide, N-terminal biotin (peptide)
peptide: RGGRGGFGGRG
modifications: not fully specified (N-terminus)
notes: Synthetic peptide
binding result [7]: binds

B5: NCL-P3 control peptide (C-terminal 12 residues of NCL), N-terminal biotin (peptide)
peptide: DHKPQGKKTKFE
modifications: not fully specified (N-terminus)
notes: Synthetic peptide
binding result [7]: no binding (tested: 0.64 to 1,000 ng/ml)
